Publication PMC11500415, “Chemical inhibition of stomatal differentiation by perturbation of the master-regulatory bHLH heterodimer via an ACT-Like domain” (Nature Communications, 2024)
Values joined by “and” are separate entries in the source; they are usually repeats but may differ in a detail not shown here. Equal entries are not always repeated.

Key:
Format in all cases: cell-based
SCRM-SPCH heterodimer = biological target: T1, SCRM-SPCH heterodimer (Arabidopsis thaliana, UniProt Q700C7); test: Y2H growth and quantitative α-galactosidase assay; settings: yeast SPCH∆N+SCRM, media -WLH, replicates #1-#3
T1 construct: truncated SPCH and FAMA proteins lacking their N-terminal domain were used in yeast; expressed in transfected cells; host or cells: yeast strain AH109
T1 sequence (Q700C7 98-364 limits assumed): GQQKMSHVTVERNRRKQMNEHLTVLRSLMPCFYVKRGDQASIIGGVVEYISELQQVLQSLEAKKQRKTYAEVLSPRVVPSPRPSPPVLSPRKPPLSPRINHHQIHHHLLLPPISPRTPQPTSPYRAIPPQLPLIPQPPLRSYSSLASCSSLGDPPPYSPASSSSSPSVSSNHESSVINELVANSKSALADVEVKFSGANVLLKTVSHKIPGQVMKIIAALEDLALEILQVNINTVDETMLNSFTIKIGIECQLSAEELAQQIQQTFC
Protocol: (§1) Y2H assays were performed using the Matchmaker^TM Two-Hybrid System (Clontech). Bait (pGBKT7) and prey (pGADT7) constructs were co-transformed into the yeast strain AH109 using Frozen-EZ Yeast Transformation II Kit (Zymo Research, T2001). The resulting transformants were spotted on SD ( − Leu, −Trp) and SD ( − Trp, −Leu, −His) selection media containing different concentrations of 3-amino-1,2,4-triazole (Sigma, A8056) as previously reported. Quantitative α-galactosidase assay was also performed according to manufactural instruction (Clontech). Briefly, the transformants were incubated in 2 ml SD medium with 0, 10, 50 100 μM Stomidazolone (3) or SIM3* (7) with rotary shake (220 rpm) at 30 °C overnight. The cultured media containing yeast were transferred to microtubes and centrifuged to obtain the supernatant. The colorimetric assay was performed by incubating 8 μL of supernatant with 24 μL Assay Buffer that contains 0.5 M sodium acetate (pH 4.5) (Nakalai tesque, 31137-25): 100 mM p-nitrophenyl α-D-Galactopyranoside Solution (Sigma N0877) = 2:1 (v/v) at 30 °C for 60 min, then terminated by adding 960 μL 1X Stop Solution (0.1 M sodium carbonate, Fujifilm Wako 195-01582). After OD410 was recorded, α-galactosidase units were calculated according to the protocol (Clontech, P3024-1).

SCRM-MUTE heterodimer = biological target: T2, SCRM-MUTE heterodimer (Arabidopsis thaliana, UniProt Q9M8K6); test: Y2H growth and quantitative α-galactosidase assay; settings: yeast MUTE+SCRM, media -WLH, replicates #1-#3
T2 construct: expressed in transfected cells; host or cells: yeast strain AH109
T2 sequence (Q9M8K6 1-202): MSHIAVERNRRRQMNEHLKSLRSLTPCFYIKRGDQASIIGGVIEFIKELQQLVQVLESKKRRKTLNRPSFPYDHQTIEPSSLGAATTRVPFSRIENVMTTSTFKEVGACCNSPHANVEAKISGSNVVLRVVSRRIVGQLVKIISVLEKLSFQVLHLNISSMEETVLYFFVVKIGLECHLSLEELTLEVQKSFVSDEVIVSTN
Protocol: as §1

SCRM-FAMA heterodimer = biological target: T3, SCRM-FAMA heterodimer (Arabidopsis thaliana, UniProt Q56YJ8); test: Y2H growth and quantitative α-galactosidase assay; settings: yeast FAMA∆N+SCRM, media -WLH, replicates #1-#3
T3 construct: truncated SPCH and FAMA proteins lacking their N-terminal domain were used in yeast; expressed in transfected cells; host or cells: yeast strain AH109
Protocol: as §1

MUTE+AD (control yeast) = biological target: T4, MUTE+AD (control yeast) (Arabidopsis thaliana, UniProt Q9M8K6); test: Y2H quantitative α-galactosidase assay, control yeast MUTE+AD; settings: media -WL, replicates #1-#3
T4 construct: expressed in transfected cells; host or cells: yeast strain AH109
T4 sequence (Q9M8K6 1-202): T2 sequence (Q9M8K6 1-202)
From the text: Supplement 41467_2024_53214_MOESM7_ESM.xlsx, sheet "Fig.S5" | column: Meristemoid

DB+SCRM (control yeast) = biological target: T5, DB+SCRM (control yeast) (Arabidopsis thaliana, UniProt Q9LSE2); test: Y2H quantitative α-galactosidase assay, control yeast DB+SCRM; settings: media -WL, replicates #1-#3
T5 construct: expressed in transfected cells; host or cells: yeast strain AH109
T5 sequence (Q9LSE2 1-494): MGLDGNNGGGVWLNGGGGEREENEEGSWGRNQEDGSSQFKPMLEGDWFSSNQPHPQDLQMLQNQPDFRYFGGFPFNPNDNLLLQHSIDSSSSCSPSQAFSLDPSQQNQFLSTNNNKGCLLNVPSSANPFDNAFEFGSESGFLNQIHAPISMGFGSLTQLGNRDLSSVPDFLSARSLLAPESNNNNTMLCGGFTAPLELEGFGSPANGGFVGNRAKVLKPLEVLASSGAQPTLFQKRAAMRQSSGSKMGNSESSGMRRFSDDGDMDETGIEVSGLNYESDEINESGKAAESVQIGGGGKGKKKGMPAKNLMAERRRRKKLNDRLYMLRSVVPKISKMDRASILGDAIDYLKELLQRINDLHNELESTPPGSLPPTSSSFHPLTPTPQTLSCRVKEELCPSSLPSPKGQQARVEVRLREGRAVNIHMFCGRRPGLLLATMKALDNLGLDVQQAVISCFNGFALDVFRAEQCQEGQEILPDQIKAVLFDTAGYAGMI

T3 sequence (Q56YJ8 190-414, one chain of several): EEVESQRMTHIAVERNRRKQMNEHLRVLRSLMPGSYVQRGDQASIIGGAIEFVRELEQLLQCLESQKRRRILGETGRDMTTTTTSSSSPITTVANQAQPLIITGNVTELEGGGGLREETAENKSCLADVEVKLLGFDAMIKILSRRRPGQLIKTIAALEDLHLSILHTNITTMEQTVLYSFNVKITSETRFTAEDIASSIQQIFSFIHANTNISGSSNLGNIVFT

## Cc1nc(-c2ccccc2)c(NS(=O)(=O)c2ccccc2)o1 [SIM3*]
SCRM-SPCH heterodimer; 10 µM
  a-galactosidase: 4.934 milliunits /(ml x cell) and 5.0596 milliunits /(ml x cell) and 4.687 milliunits /(ml x cell)
SCRM-SPCH heterodimer; 50 µM
  a-galactosidase: 4.693 milliunits /(ml x cell) and 5.268 milliunits /(ml x cell) and 5.059 milliunits /(ml x cell)
SCRM-SPCH heterodimer; 100 µM
  a-galactosidase: 6.071 milliunits /(ml x cell) and 5.524 milliunits /(ml x cell) and 5.145 milliunits /(ml x cell)
SCRM-MUTE heterodimer; 10 µM
  a-galactosidase: 6.318 milliunits /(ml x cell) and 6.221 milliunits /(ml x cell) and 6.24 milliunits /(ml x cell)
SCRM-MUTE heterodimer; 50 µM
  a-galactosidase: 7.176 milliunits /(ml x cell) and 6.898 milliunits /(ml x cell) and 6.187 milliunits /(ml x cell)
SCRM-MUTE heterodimer; 100 µM
  a-galactosidase: 6.801 milliunits /(ml x cell) and 6.285 milliunits /(ml x cell) and 6.027 milliunits /(ml x cell)
SCRM-FAMA heterodimer; 10 µM
  a-galactosidase: 9.596 milliunits /(ml x cell) and 8.612 milliunits /(ml x cell) and 10.2528 milliunits /(ml x cell)
SCRM-FAMA heterodimer; 50 µM
  a-galactosidase: 8.883 milliunits /(ml x cell) and 8.135 milliunits /(ml x cell) and 9.605 milliunits /(ml x cell)
SCRM-FAMA heterodimer; 100 µM
  a-galactosidase: 8.9516 milliunits /(ml x cell) and 9.181 milliunits /(ml x cell) and 8.943 milliunits /(ml x cell)
MUTE+AD (control yeast); 10 µM
  a-galactosidase: 0.05913 milliunits /(ml x cell) and 0.1128 milliunits /(ml x cell) and 0.06646 milliunits /(ml x cell)
MUTE+AD (control yeast); 50 µM
  a-galactosidase: 0.06252 milliunits /(ml x cell) and 0.06546 milliunits /(ml x cell) and 0.1442 milliunits /(ml x cell)
MUTE+AD (control yeast); 100 µM
  a-galactosidase: 0.1449 milliunits /(ml x cell) and 0.1698 milliunits /(ml x cell) and 0.1689 milliunits /(ml x cell)
DB+SCRM (control yeast); 10 µM
  a-galactosidase: 0.04682 milliunits /(ml x cell) and 0.1024 milliunits /(ml x cell) and 0.1038 milliunits /(ml x cell)
DB+SCRM (control yeast); 50 µM
  a-galactosidase: 0.1114 milliunits /(ml x cell) and 0.04747 milliunits /(ml x cell) and 0.1243 milliunits /(ml x cell)
DB+SCRM (control yeast); 100 µM
  a-galactosidase: 0.1293 milliunits /(ml x cell) and 0.1919 milliunits /(ml x cell) and 0.06561 milliunits /(ml x cell)
